Experimental data from ChEMBL document CHEMBL5316329, “Structure-Based Optimization of 2,4,5-Trisubstituted Pyrimidines as Potent HIV-1 Non-Nucleoside Reverse Transcriptase Inhibitors: Exploiting the Tolerant Regions of the Non-Nucleoside Reverse Transcriptase Inhibitors' Binding Pocket” (J Med Chem, 2023).

Legend:
[1] = tested on: Human immunodeficiency virus 1; assay: Antiviral activity against wild-type HIV-1 IIIB infected in human MT4 cells assessed as virus-induced cytopathicity treated for 5 days by MTT assay; format: functional, organism-based; details: Human immunodeficiency virus 1, IIIB, MT4, 120 h
[2] = tested on: Human immunodeficiency virus 1; assay: Antiviral activity against NNRTI-resistant HIV-1 RES056 infected in human MT4 cells assessed as virus-induced cytopathicity treated for 5 days by MTT assay; format: functional, organism-based; details: Human immunodeficiency virus 1, RES056, MT4, 120 h
[3] = Selectivity index, ratio of CC50 for human MT4 cells to EC50 for wild-type HIV-1 IIIB infected in human MT4 cells; format: toxicity, cell-based; details: read-out: Selectivity Index
[4] = biological target: Human immunodeficiency virus type 1 reverse transcriptase (Human immunodeficiency virus 1, UniProt Q72547); assay: Inhibition of wild-type HIV-1 reverse transcriptase assessed as inhibition of biotin-dUTP incorporation
[5] = Cytotoxicity against human MT4 cells assessed as reduction in cell viability treated for 5 days by MTT assay; format: toxicity, cell-based; details: time 5 day
[6] = Selectivity index, ratio of CC50 for human MT4 cells to EC50 for NNRTI-resistant HIV-1 RES056 infected in human MT4 cells; format: toxicity, cell-based; details: read-out: Selectivity Index
[7] = tested on: Human immunodeficiency virus 1; assay: Antiviral activity against HIV-1 harboring Y181C mutant infected in human MT4 cells assessed as virus-induced cytopathicity treated for 5 days by MTT assay; format: functional, organism-based; details: Human immunodeficiency virus 1, MT4, 120 h
[8] = tested on: Human immunodeficiency virus 1; assay: Antiviral activity against HIV-1 harboring L100I mutant infected in human MT4 cells assessed as virus-induced cytopathicity treated for 5 days by MTT assay; format: functional, organism-based; details: Human immunodeficiency virus 1, MT4, 120 h

Compound | EC50 [1] [nM] | EC50 [2] [nM] | selectivity ratio [3] | IC50 [4] [nM] | CC50 at 120 h [5] [nM] | selectivity ratio [6] | EC50 ([7]; read-out: EC50) [nM] | EC50 ([7]; read-out: pEC50 (converted)) [nM] | EC50 ([8]; read-out: EC50) [nM] | EC50 ([8]; read-out: pEC50 (converted)) [nM]
Cc1cc(/C=C/C#N)cc(C)c1Oc1nc(NC2CCN(Cc3ccc(S(C)(=O)=O)cc3)CC2)ncc1-c1ccccc1N | 5.89 | 109 | 868 | 178 | 5110 | 47 |  |  |  | 
Cc1cc(/C=C/C#N)cc(C)c1Oc1nc(NC2CCN(Cc3ccc(C(N)=O)cc3)CC2)ncc1-c1cccc(F)c1 | 6.11 | 113 | 1850 | 163 | 11300 | 100 |  |  |  | 
Cc1cc(/C=C/C#N)cc(C)c1Oc1nc(NC2CCN(Cc3ccc(S(C)(=O)=O)cc3)CC2)ncc1-c1ccccc1F | 6.81 | 183 | 1710 | 161 | 11600 | 63 |  |  |  | 
Cc1cc(/C=C/C#N)cc(C)c1Oc1nc(NC2CCN(Cc3ccc(C(N)=O)cc3)CC2)ncc1-c1ccc(F)cc1 | 5.15 | 53.5 | 1600 | 130 | 8230 | 154 |  |  |  | 
Cc1cc(/C=C/C#N)cc(C)c1Oc1nc(NC2CCN(Cc3ccc(S(N)(=O)=O)cc3)CC2)ncc1-c1ccccc1O | 9.15 | 172 | 1370 | 205 | 12500 | 72 |  |  |  | 
Cc1cc(/C=C/C#N)cc(C)c1Oc1nc(NC2CCN(Cc3ccc(S(N)(=O)=O)cc3)CC2)ncc1-c1cccc(F)c1 | 9.55 | 132 | 1490 | 194 | 14200 | 108 |  |  |  | 
Cc1cc(/C=C/C#N)cc(C)c1Oc1nc(NC2CCN(Cc3ccc(S(C)(=O)=O)cc3)CC2)ncc1-c1ccc(F)cc1 | 5.09 | 101 | 853 | 145 | 4340 | 43 |  |  |  | 
Cc1cc(/C=C/C#N)cc(C)c1Cc1nc(NC2CCN(Cc3ccc(C(N)=O)cc3)CC2)ncc1-c1cnc(N)nc1 | 6.82 | 68.6 | 451 | 157 | 3070 | 45 |  |  |  | 
Cc1cc(C#N)cc(C)c1Oc1nc(Nc2ccc(C#N)cc2)nc(N)c1Br [ETRAVIRINE] |  | 52.2 |  |  | > 4590 |  | 16.6 | 17 | 11.7 | 11.7
CC(=O)c1ccc(-c2cnc(NC3CCN(Cc4ccc(S(C)(=O)=O)cc4)CC3)nc2Oc2c(C)cc(/C=C/C#N)cc2C)cc1 | 5.48 | 93.4 | 1540 | 199 | 8460 | 91 |  |  |  | 
Cc1cc(/C=C/C#N)cc(C)c1Oc1nc(NC2CCN(Cc3ccc(S(N)(=O)=O)cc3)CC2)ncc1-c1ccc(F)cc1 | 4.98 | 67.8 | 1930 | 137 | 9630 | 142 |  |  |  | 
Cc1cc(/C=C/C#N)cc(C)c1Oc1nc(NC2CCN(Cc3ccc(S(C)(=O)=O)cc3)CC2)ncc1-c1ccccc1O | 9.04 | 376 | 745 | 328 | 6730 | 18 |  |  |  | 
Cc1cc(/C=C/C#N)cc(C)c1Cc1nc(NC2CCN(Cc3ccc(S(N)(=O)=O)cc3)CC2)ncc1-c1cnc(N)nc1 | 4.44 | 32.3 | 617 | 85 | 2740 | 85 |  |  |  | 
Cc1cc(/C=C/C#N)cc(C)c1Oc1nc(NC2CCN(Cc3ccc(S(C)(=O)=O)cc3)CC2)ncc1-c1cccc(N)c1 | 6.05 | 52.8 | 682 | 136 | 4120 | 78 |  |  |  | 
Cc1cc(/C=C/C#N)cc(C)c1Oc1nc(NC2CCN(Cc3ccc(S(C)(=O)=O)cc3)CC2)ncc1-c1ccc(O)cc1 | 5.67 | 50.9 | 956 | 97 | 5410 | 106 |  |  |  | 
Cc1cc(/C=C/C#N)cc(C)c1Oc1nc(NC2CCN(Cc3ccc(S(C)(=O)=O)cc3)CC2)ncc1-c1ccc2c(c1)OCO2 | 5.53 | 59 | 776 | 161 | 4290 | 73 |  |  |  | 
Cc1cc(/C=C/C#N)cc(C)c1Oc1nc(NC2CCN(Cc3ccc(S(N)(=O)=O)cc3)CC2)ncc1-c1ccccc1N | 5.76 | 91 | 953 | 159 | 5490 | 60 |  |  |  | 
Cc1cc(/C=C/C#N)cc(C)c1Oc1nc(NC2CCN(Cc3ccc(S(C)(=O)=O)cc3)CC2)ncc1-c1cccc(F)c1 | 7.26 | 123 | 916 | 228 | 6650 | 54 |  |  |  | 
Cc1cc(/C=C/C#N)cc(C)c1Oc1nc(NC2CCN(Cc3ccc(C(N)=O)cc3)CC2)ncc1-c1ccccc1F | 7.4 | 192 | 1420 | 154 | 10500 | 55 |  |  |  | 
Cc1cc(/C=C/C#N)cc(C)c1Oc1nc(NC2CCN(Cc3ccc(S(C)(=O)=O)cc3)CC2)ncc1-c1cccc(O)c1 | 5.76 | 68 | 756 | 164 | 4350 | 64 |  |  |  | 
Cc1cc(/C=C/C#N)cc(C)c1Oc1nc(NC2CCN(Cc3ccc(C(N)=O)cc3)CC2)ncc1-c1ccc(O)cc1 | 5.66 | 150 | 3760 | 171 | 21300 | 142 |  |  |  | 
CC(=O)c1ccc(-c2cnc(NC3CCN(Cc4ccc(C(N)=O)cc4)CC3)nc2Oc2c(C)cc(/C=C/C#N)cc2C)cc1 | 5.16 | 55.5 | 2160 | 175 | 11100 | 201 |  |  |  | 
Cc1cc(/C=C/C#N)cc(C)c1Cc1nc(NC2CCN(Cc3ccc(S(C)(=O)=O)cc3)CC2)ncc1-c1cnc(N)nc1 | 4.16 | 29.8 | 416 | 108 | 1730 | 58 |  |  |  | 
Cc1cc(/C=C/C#N)cc(C)c1Oc1nc(NC2CCN(Cc3ccc(C(N)=O)cc3)CC2)ncc1-c1ccccc1N | 4.4 | 49.3 | 2680 | 122 | 11700 | 239 |  |  |  | 
Cc1cc(/C=C/C#N)cc(C)c1Oc1nc(NC2CCN(Cc3ccc(C(N)=O)cc3)CC2)ncc1-c1ccccc1O | 5.99 | 123 | 1870 | 178 | 11200 | 91 |  |  |  | 
Cc1cc(/C=C/C#N)cc(C)c1Oc1nc(NC2CCN(Cc3ccc(S(N)(=O)=O)cc3)CC2)ncc1-c1ccccc1F | 3.96 | 101 | 2760 | 130 | 10900 | 107 |  |  |  | 
